Measurements reported in patent US20250270512A1, “ADDITIVE FOR UNDIFFERENTIATION MAINTAINING MEDIUM” (AJINOMOTO CO., INC., priority 2017, published 2025).
Entries after “also recorded” stand apart in the source; their conditions may differ.

How the values were obtained:
Type in all cases: cell-based
[1] = test system: human induced pluripotent stem cells 201B7; assay: Proliferation promoting effect of L-tryptophan metabolites in mTeSR1, cell coating rate by IncuCyte, 201B7; settings: mTeSR1 medium, final 50, 100, 200, 500, 1000 μM, 0-120 hr
Experimental: L-kynurenine (Sigma-Aldrich Co. LLC: […]) was added at a final concentration of 50, 100, 200, 500, 1000 μM to mTeSR1 medium and the proliferation promoting effect was examined using the prepared medium. Y-27632 was added at a final concentration of 10 μM for 2 days after seeding. As a basement membrane matrix, Matrigel (Japan Becton, Dickinson and Company) was applied on a 6 well plate and 20,000 cells were single cell seeded per well. Two days after the cell seeding, evaluation was performed using the medium free of Y-27632 and prepared as mentioned above. The time of L-kynurenine addition was taken as 0 and the cell coating rate was measured using IncuCyte at 0, 24, 48, 72, 96 and 120 hr later. […] Kynurenic acid (Sigma-Aldrich Co. LLC: […]) was added at a final concentration of 50, 100, 200, 500, 1000 μM to mTeSR1 medium and the proliferation promoting effect was examined using the prepared medium. Y-27632 was added at a final concentration of 10 μM for 2 days after seeding. As a basement membrane matrix, Matrigel (Japan Becton, Dickinson and Company) was applied on a 6 well plate and 20,000 cells were single cell seeded per well. […] The time of kynurenic acid addition was taken as 0 and the cell coating rate was measured using IncuCyte at 0, 24, 48, 72, 96 and 120 hr later.

[2] = test system: human embryonic kidney cell line HEK293T cells; assay: Proliferation promoting effect of L-tryptophan, cell coating rate by IncuCyte, HEK293T; settings: 293T; DMEM with 10% fetal bovine serum; final 44-1408 μM; 24-120 hr
Experimental: Next, the proliferation promoting effect of L-tryptophan was evaluated using human embryonic kidney cell line HEK293T cells. As the medium, DMEM medium (Thermo Fisher Scientific K. K.: 11965) added with 10% fetal bovine serum was used and culturing was performed under 5% CO2/37° C. conditions.
L-tryptophan (Sigma-Aldrich Co. LLC: T8941) was added at a given concentration to DMEM medium (Thermo Fisher Scientific K.K.: 11965) added with 10% fetal bovine serum, used for culture and the effect thereof was examined.
L-tryptophan (Sigma-Aldrich Co. LLC: T8941) was added at a final concentration of 44, 176, 352, 704, 1408 μM to DMEM medium (Thermo Fisher Scientific K.K.: 11965) added with 10% fetal bovine serum and the proliferation promoting effect of L-tryptophan was examined using the prepared medium. A 6 well plate was prepared and 10,000 cells were single cell seeded per well. The next day of cell seeding, evaluation was performed by replacing the medium with the medium prepared as mentioned above. The culture period was set to 6 days, the time of L-tryptophan addition was set to 0 and the cell coating rate was measured using IncuCyte at 24, 48, 72, 96 and 120 hr later.

[3] = test system: human embryonic stem cells H9; assay: Proliferation promoting effect of L-tryptophan, cell coating rate by IncuCyte, H9; settings: mTeSR1 medium, final 44-1408 μM, 24-120 hr
Experimental: (§1) Then, the proliferation promoting effect of L-tryptophan was evaluated using other strain 253G4 of human induced pluripotent stem cell (iPS cell) and human embryonic stem cell H9 strain. As the medium, mTeSR1 (STEM CELL Technologies Inc.: 05850) was used and culturing was performed under 5% CO2/37° C. conditions.
(§2) L-tryptophan (Sigma-Aldrich Co. LLC: T8941) was added to mTeSR1 medium (STEM CELL Technologies Inc.: 05850) at a given concentration, used for culture and the effect thereof was examined.
(§3) L-tryptophan (Sigma-Aldrich Co. LLC: T8941) was added at a final concentration of 44, 176, 352, 704, 1408 μM to mTeSR1 medium and the proliferation promoting effect of L-tryptophan was examined using the prepared medium. A 6 well plate coated with Matrigel (Japan Becton, Dickinson and Company) as a basement membrane matrix was prepared and 40,000 253G4 cells and 10,000 H9 cells were single cell seeded per well. The next day of cell seeding, evaluation was performed by replacing the medium with the medium prepared as mentioned above. The culture period was set to 6 days, the time of L-tryptophan addition was set to 0 and the cell coating rate was measured using IncuCyte at 24, 48, 72, 96 and 120 hr later. As the medium to be used when seeding, a medium without addition of Y-27632 at a final concentration of 10 μM was used and culturing was performed.

[4] = test system: human induced pluripotent stem cells 201B7; assay: Proliferation promoting effect of L-tryptophan, cell coating rate by IncuCyte, 201B7; settings: final 44-1408 μM, 24-120 hr after addition
Experimental: First, the proliferation promoting effect of L-tryptophan on induced pluripotent stem cells (iPS cells) was evaluated using 3 kinds of commercially available media. As the human iPS cell, 201B7 strain purchased from iPS Academia Japan, Inc. was used and cultured under the conditions of 5% CO2/37° C.
L-tryptophan (Sigma-Aldrich Co. LLC: T8941) was added to the media of Essential-8 (Life Technologies Inc.: A1517001), mTeSR1 (STEM CELL Technologies Inc.: 05850), TeSR2 (STEM CELL Technologies Inc.: 05860) at a given concentration, used for culture and the effect thereof was examined.
as §3, with “Essential-8, mTeSR1, TeSR2 media” for “mTeSR1 medium”, “media.” for “medium.”, “13,000” for “40,000 253G4 cells and 10,000 H9”, “using” for “by replacing the medium with”

[5] = test system: human iPS cell 201B7 strain; assay: Expression of undifferentiated marker after addition of high concentration of L-tryptophan; settings: data not shown
[6] = test system: human induced pluripotent stem cells 253G4; assay: Proliferation promoting effect of L-tryptophan, cell coating rate by IncuCyte, 253G4; settings: mTeSR1 medium, final 44-1408 μM, 24-120 hr
Experimental: as §1, §2, §3

| SMILES | cell coating rate (proliferation promoting effect) [1] | cell coating rate (proliferation promoting effect) [2] | cell coating rate (proliferation promoting effect) [3] | cell coating rate (proliferation promoting effect) ([4]; Essential-8 medium) | cell coating rate (proliferation promoting effect) ([4]; TeSR2 medium) | cell coating rate (proliferation promoting effect) ([4]; mTeSR1 medium) | expression of undifferentiated marker (OCT, Nanog, alkaline phosphatase) [5] | cell coating rate (proliferation promoting effect) [6] |
| --- | --- | --- | --- | --- | --- | --- | --- | --- |
| Nc1ccccc1C(=O)C[C@H](N)C(=O)O [L-kynurenine] | showed a cell proliferation promoting effect in the L-kynurenine 50-500 μM addition group | – | – | – | – | – | – | – |
| NC(Cc1c[nH]c2ccccc12)C(=O)O [L-tryptophan, 2-amino-3-(indolyl)propionic acid] | – | concentration-dependent proliferation promoting effect of L-tryptophan was not confirmed; also recorded: did not show an L-tryptophan concentration-dependent effect of promoting proliferation | concentration-dependent proliferation promoting effect of L-tryptophan was also confirmed; also recorded: showed an L-tryptophan concentration-dependent effect of promoting proliferation | showed a proliferation promoting effect in an L-tryptophan concentration dependent manner; also recorded: showed an L-tryptophan concentration-dependent effect of promoting proliferation | showed a proliferation promoting effect in an L-tryptophan concentration dependent manner; also recorded: showed an L-tryptophan concentration-dependent effect of promoting proliferation | showed a proliferation promoting effect in an L-tryptophan concentration dependent manner; also recorded: showed an L-tryptophan concentration-dependent effect of promoting proliferation | not influenced | concentration-dependent proliferation promoting effect of L-tryptophan was also confirmed; also recorded: showed an L-tryptophan concentration-dependent effect of promoting proliferation |
| O=C(O)c1cc(=O)c2ccccc2[nH]1 [kynurenic acid] | showed a cell proliferation promoting effect in the kynurenic acid 50-500 μM addition group | – | – | – | – | – | – | – |
